Results: patent US20220113299A1, “METHOD OF DYNAMICS ANALYSIS FOR COMPOUND IN CELL” (Hitachi High-Tech Corporation, priority 2019, published 2022)

Test system: hepatocytes
Assay: kinetic analysis of compound efflux in cultured hepatocytes (Test Sections 1 to 3, fluorescence measurement)
Type: in vitro ADME, rat
Conditions: 30 minutes; for ratio of the amount of compound excreted into the bile duct to the totality of compound taken up into the cells (BiRD): (B1-B2)/(C1+C2), EGTA disrupted vs maintained system, 37° C.; for ratio of the amount of compound excreted into the bile duct to the totality of compound taken up into the cells (BiRD) / ratio of the amount of compound excreted via transporter to the amount of compound excreted basolaterally (RexEMTP): pattern 1; for ratio of the amount of compound excreted via transporter to the amount of compound excreted basolaterally (RexEMTP): (B2-B3)/B2, cultured hepatocytes, 37° C. vs 4° C.; for Sup fraction (fraction of the first basolateral efflux), index for tendency to remain or not to remain in the cells: pattern 2: sum of Steps 4, 5 and 6 = 100%, Step 4, 37° C., in %
Description: Hepatocytes were prepared by in-situ collagenase perfusion method. The details are as follows. A rat (5-6 week-old) is anesthetized with pentobarbital and undergoes laparotomy, followed by insertion of a catheter into the portal vein and injection of a preperfusion solution (a Ca^2+ and Mg^2+ free Hanks' solution containing glycol ether diaminetetraacetic acid (EGTA)). After checking that blood is sufficiently removed from the liver, the perfusion is stopped. Perfusion is performed with the perfusate being changed to a collagenase solution. In this embodiment, the perfusion operates with a Hanks' solution containing 0.05% collagenase, but the collagenase solution is not limited to this. After checking that the tissue between the cells has been digested by collagenase, the perfusion is stopped. The liver is excised, sliced in a cooled Hanks' solution, and separated into cells by pipetting. Damaged hepatocytes are removed by centrifugation at 500 G for 5 minutes with an isotonic Percoll solution. The viability of the resulting hepatocytes is determined by the trypan blue-exclusion test. Hepatocytes having a viability of 85% or more are used for culture. Here, hepatocytes having a viability of 85% or more are used for culture, but such culture is not necessarily limited to the condition. In addition, the preparation of hepatocytes is not necessarily limited to that by in situ collagenase perfusion method. The hepatocytes to be used are not limited to those derived from a rat, and the strain of rat is not limited. This embodiment employs hepatocytes, but cells are not limited to this.
(3) Cells prepared by a procedure as above are suspended in a medium. The hepatocytes are suspended at a density of 5×10^5 cells/mL in the medium and plated onto a commercially available culture dish coated with collagen. The density upon plating, the medium, and the culture plate 001 are not limited. The culture plate is illustrated in FIG. 7. A 24-well culture plate having 24 culture regions (wells, 002) is here illustrated, but the culture plate is not limited to this, and any of containers in other shapes may be used as long as it can contain predetermined cells. After plating, culture is started under conditions of 5% CO2 and 37° C. using a CO2 incubator. After 18 hours or more, the first medium change is performed. This embodiment employs a FCS-medium, which is a medium resulting from removal of FCS from the medium (10% FCS+) and supplementation with Matrigel, as the medium to be used for culture 18 hours after the plating. However, the medium can be any medium. After this, medium change with the medium (FCS−) is performed every 24 hours. As described later, testing is performed under three different conditions in Step 5 (Test Sections 1, 2, and 3; described in detail in Step 5), three independent culture plates under the same conditions are prepared at this point. In Steps 0 to 4 and Step 5, the same testing operations are performed in all the three test sections.
The culture supernatant of the cells cultured in Step 0 for 4 days is removed, and 400 μL of Hanks' solution is added as a buffer. The cells are incubated at 37° C. for 10 minutes (FIG. 2, Step 1). The type and amount of buffer are not limited.
The buffer is removed, and then 200 μL of […] carboxydichlorofluorescein (CDF; a fluorescent reagent) is fed to the well. The plate is incubated at 37° C. for 30 minutes and then maintained at 4° C. for 5 minutes (FIG. 2, Step 2). The type, concentration, and amount of the reagent are not limited. CDF emits fluorescence and can therefore be easily quantified as a model reagent with a plate reader. The amount of administration, 200 μL, was chosen so that the cells as a whole in the well would be immersed in the reagent. The concentration of CDF may be a concentration conventionally used for a fluorescence assay of cells. This concentration is preferably applied also as an amount of the reagent for the detection with a plate reader. […]

| ratio of the amount of compound excreted into the bile duct to the totality of compound taken up into the cells (BiRD) | ratio of the amount of compound excreted via transporter to the amount of compound excreted basolaterally (RexEMTP) | Sup fraction (fraction of the first basolateral efflux), index for tendency to remain or not to remain in the cells | Substance |
| --- | --- | --- | --- |
| 4.92 | 52.52 | 39.29 | Rhodamine 123 |
| 18.58 | 41.08 | 70.82 | carboxydichlorofluorescein [CDF] |
